{"source": "patent US7897637B2", "about": "“Methods of using flavonoids to enhance memory” (The Salk Institute for Biological Studies, priority 2006, dated 2011)", "key": {"ERK [1]": {"test_system": "ERK", "conditions": "Vanhoutte et al. 1999; English & Sweatt 1997; cited from earlier work"}, "CREB [2]": {"test_system": "CREB", "assay": "CREB phosphorylation in hippocampal slices (immunoblotting, densitometry)", "type": "cell-based, rat", "conditions": "inhibitor alone (50 μM PD98059 or 10 μM U0126, 30 minutes)", "method": "(§1) Western blots panels A and B) of hippocampal slices treated with (A) 1 μM fisetin or (B) pretreated for 30 minutes with either 50 μM PD98059 (PD) or 10 μM U0126 (U) before the addition of 1 μM fisetin for 5 minutes, which blots were probed with the indicated antibodies.\n(§2) Hippocampal slices in artificial cerebral spinal fluid (ACSF) were treated with either 1 μM fisetin for 5-20 minutes or pretreated for 30 minutes with either 50 μM PD98059 (PD) or 10 μM U0126 (J) before the addition of 1 μM fisetin for 5 minutes. Equal amounts of protein were analyzed by SDS-PAGE and immunoblotting with antibodies to phospho-ERK and phospho-CRFB along with antibodies to the unphosphorylated forms of the proteins. The average phosphoprotein signal from the blots was quantified by densitometry and normalized to total protein was plotted±S.D."}, "ERK2 (p42)": {"test_system": "ERK2 (p42)", "assay": "ERK2 (p42) phosphorylation in hippocampal slices (immunoblotting, densitometry)", "type": "cell-based, rat", "conditions": "inhibitor alone (50 μM PD98059 or 10 μM U0126, 30 minutes)", "method": "as §1, §2"}, "ERK [3]": {"test_system": "ERK", "assay": "ERK activation in primary cortical neuron cultures (immunoblotting)", "type": "cell-based, rat", "conditions": "50 μM PD98059 pretreatment, 10 μM fisetin 4 hours", "method": "(§3) The average phosphoprotein signal from the blots was quantified by densitometry and normalized to total protein,\n(§4) Five (5) day old cortical cultures were next pretreated with 50 μM of the MEK inhibitor, PD98059, before the addition of 10 μM fisetin for 4 hours.\n(§5) Primary cultures of rat cortical neurons were prepared as previously described by Li et al. (Neuron, 19:453-63, 1997, herein incorporated by reference as to the method). Analysis of ERK and CREB phosphorylation was performed using SDS-polyacrylamide gel electrophoresis and immunoblotting as previously described by Sagara et al. (J. Neurochem., 90:1144-1155, 2004) using equal amounts of protein from 5 day old cortical cultures. Blots were scanned and quantified using NIH Image. Results were analyzed using an unpaired Student's t-test."}, "ERK1 (p44)": {"test_system": "ERK1 (p44)", "assay": "ERK1 (p44) phosphorylation in hippocampal slices (immunoblotting, densitometry)", "type": "cell-based, rat", "conditions": "inhibitor alone (50 μM PD98059 or 10 μM U0126, 30 minutes)", "method": "as §1, §2"}, "CREB [4]": {"test_system": "CREB", "assay": "CREB activation in primary cortical neuron cultures (immunoblotting)", "type": "cell-based, rat", "conditions": "50 μM PD98059 pretreatment, 10 μM fisetin 4 hours", "method": "as §3, §4, §5"}, "HT22 cells": {"test_system": "HT22 cells", "assay": "Protection of HT22 cells from oxidative glutamate toxicity (MTT assay)", "type": "cell-based, mouse", "conditions": "5 mM glutamate ± 50 μM PD98059, 24 hours", "text": "Fisetin is effective at protecting nerve cells from oxidative stress-induced death (Ishige et al., Free Radic. Biol. Med., 30:433-446, 2001). This Example illustrates the structure-activity relationship between fisetin derivatives and neuroprotection in a model of oxidative glutamate toxicity using mouse HT22 cells. This pathway of programmed cell death is initiated by the addition of glutamate to the extracellular medium. Glutamate inhibits the uptake of cystine which is required for glutathione (GSH) biosynthesis, resulting in the depletion of GSH in neurons (for review see Tan et al., Curr. Top. Med. Chem., 1:497-506, 2001). Subsequently, this decrease in cellular GSH results in the production of reactive oxygen species (ROS) by mitochondria. The ROS accumulation then causes Ca^+2 influx from the extracellular medium which leads to cell death.\nHT22 cells were untreated (Ct) or treated with 10 μM fisetin, 25 μM 3,3′-DHF, 25 μM 3,4′-DHF, 2.5 μM 3′,4′-DHF, 2.5 μM 3,3′,4′-THF 25 μM 3,7,3′-THF, 25 μM 3,7,4′-THF or 10 μM 7,3′,4′-THF in the presence of 5 mM glutamate±50 μM PD98059. Twenty four (24) hours later cell survival was measured by the MTT assay.\nHT22 cells were untreated (Ct) or treated with 10 μM fisetin, 25 μM 3,3′-DHF. […] Protection by all of the other flavonoids was unaffected by BSO.\nCell viability was determined by a modified version of the 3-(4,5-dimethylthiazol-2-yl)-2,5-diphenyl tetrazolium bromide (MTT) assay based on the standard procedure (Hansen et al., J. Immunol. Meth., 119:203-10, 1989). Briefly, cells were seeded onto 96-well microtiter plates at a density of 5×10^3 cells per well. The next day, the medium was replaced with DMEM supplemented with 7.5% DFCS and the cells were treated with the different flavonoids alone or in the presence of 5 mM glutamate. Twenty four hours later, the medium in each well was aspirated and replaced with fresh medium containing 2.5 μg/ml MTT. After 4 hours of incubation at 37° C., cells were solubilized with 100 μl of a solution containing 50% dimethylformamide and 20% SDS (pH 4.7). The absorbance at 570 nm was measured on the following day with a microplate reader (Molecular Devices). Results obtained from the MTT assay correlated directly with the extent of cell death as confirmed visually. Controls employing wells without cells were used to determine the effects of the agents upon the assay chemistry."}, "ERK [5]": {"test_system": "ERK", "assay": "ERK activation in PC12 cells (immunoblotting, anti-phospho ERK)", "type": "cell-based", "conditions": "50 μM PD98059, 30 minutes pretreatment, flavonoids 4 hours", "method": "PC12 cells were treated with the optimal concentrations for differentiation of the different derivatives for 10 minutes to 6 hours; then the cells were scraped into sample buffer and analyzed by SDS-PAGE and immunoblotting with an antibody specific for phosphorylated ERKs (anti-phospho ERK) and an antibody that detects phosphorylated and unphosphorylated ERKs (anti-ERK),\nERK activation by the different flavonoids was blocked by pretreatment with PD98059, an inhibitor of MEK, the kinase which phosphorylates ERK. PC12 cells in N2 medium were untreated (control) or treated with 10 μM fisetin, 25 μM 3,3′-DHF, 25 μM 3,4′-DHF, 25 μM 3′,4′-DHF, 5 μM 3,3′,4′-THF, 25 μM 3,7,3′-THF, 25 μM 3,7,4′-THF or 10 μM 7,3′,4′-THF for 4 hours in the absence or presence of 50 μM PD98059 (30 minutes pretreatment). The cells then were scraped into sample buffer and analyzed by SDS-PAGE and immunoblotting with an antibody specific for phosphorylated ERKs (anti-phospho ERK) and an antibody that detects phosphorylated and unphosphorylated ERKs (anti-ERK). […]\nPC12 cells in N2 medium were treated with the flavonoids as described in the text and, after the indicated time periods, the cells were solubilized in SDS sample buffer containing 0.1 mM Na3VO4 and 1 mM phenylmethylsulfonyl fluoride (PMSF), boiled for 5 minutes and either analyzed immediately or stored frozen at −70° C. […]"}, "[6]": {"test_system": "CA1 area of rat hippocampal slices", "assay": "Long-term potentiation in CA1 area of hippocampal slices", "type": "cell-based"}, "Male C57Bl/6J mice": {"test_system": "Male C57Bl/6J mice", "assay": "Object recognition task", "type": "in vivo", "conditions": "oral, dose not given; vs vehicle", "method": "The effect of fisetin, 3,3′,4′-THF, and apigenin (5,7,4′-THF) on memory was tested in mice using an object recognition task (Ennaceur and Delacour, Behav. Brain Res., 31:47-59, 1988). Among the alternatives available for testing memory, this assay has proven very effective for measuring CREB-dependent functions (Prickaerts et al., Neurosci., 113:351-61, 2002; Bourtchouladze et al., Proc. Natl. Acad. Sci. USA, 100:10518-22, 2003). In this test, mice are presented with two identical objects during the training period which they explore for a fixed time period. To test for memory, mice are presented one day later with two different objects, one of which was presented previously during the training and is thus familiar to the mice, and the other that is novel. The better a mouse remembers the familiar object, the more time it will spend exploring the novel object. To test the effects of fisetin, 3,3′,4′-THF, or apigenin (5,7,4′-THF) in this memory task, the respective compound was administered orally to the mice before the start of the training period. Rolipram, a phosphodiesterase inhibitor that potentiates memory in this assay (Bourtchouladze et al., Proc. Natl. Acad. Sci. USA, 100:10518-22, 2003), requires intraperitoneal injection and was used as a positive control.\nMale C57Bl/6J mice (Jackson Laboratories) were used and the testing was done by PsychoGenics (Tarrytown, N.Y.). All mice were acclimated to the colony room for at least 2 weeks prior to testing and were tested at an average age of 8 weeks. Mice were randomly assigned across treatment groups with 10 mice in each group. For each dose tested, a 10× solution of fisetin was prepared in 95% ethanol and then diluted with 4 volumes polyethylene glycol 660 hydroxystearate (Solut HS15 from BASF) and 5 volumes phosphate buffered saline. The vehicle was contained the identical ratios of ethanol, Solut HS15 and phosphate buffered saline. All were administered orally 60 minutes prior to training at a volume of 10 ml/kg body weight. Rolipram was dissolved in 10% DMSO and administered intraperitoneally 20 minutes prior to training. The test was performed as previously described by Bourtchouladze et al. (Proc. Natl. Acad. Sci. USA, 100:10518-22, 2003). Briefly, on Day 1 mice were habituated to a circular open field arena for one hour in cage groups of four. Twenty-four (24) hours later, individual mice were placed back in the same arena which now contained two identical objects for a 15 minutes training trial. […] Each animal's test trial was recorded and the first 10 minutes of each session were scored. […] Data were analyzed by a one-way ANOVA followed by post-hoc comparisons with Fisher's test. […]"}, "CREB [7]": {"test_system": "CREB", "conditions": "Vanhoutte et al. 1999; cited from earlier work"}, "cAMP": {"test_system": "cAMP", "assay": "cAMP levels in hippocampal slices (Scintillation Proximity Assay)", "type": "cell-based", "method": "Hippocampal slices were treated with fisetin using the conditions where maximal stimulation of CREB phosphorylation and facilitation of LTP were observed. Briefly, hippocampal slices in ACSF were treated with 1 μM fisetin for 5 minutes (fisetin) or 3 μM rolipram for 30 minutes (rolipram) and then either immediately frozen or treated with […] forskolin for an additional 15 minutes (rolipram+forskolin; fisetin+forskolin) prior to freezing. Additional slices were treated only with 5 μM forskolin for 15 minutes (forskolin). Forskolin, an activator of adenylyl cyclase, and rolipram were used as positive controls. The levels of cAMP in the slices were measured using a Scintillation Proximity Assay and presented as pmole/mg protein±S.D."}}}
{"smiles": "CN[C@H](CC(=O)O)C(=O)O", "note": "[NMDA]", "values": [{"measurement": "increase in ERK phosphorylation reported following treatment of slices", "setting": "ERK [1]", "result": "~2.5", "unit": "fold"}]}
{"smiles": "COc1cccc(-c2cc(=O)c3ccccc3o2)c1N", "note": "[PD98059, reference compound]", "values": [{"measurement": "CREB phosphoprotein signal normalized to total protein", "setting": "CREB [2]", "result": "0.64±0.11"}, {"measurement": "p42 phosphoprotein signal normalized to total protein", "setting": "ERK2 (p42)", "result": "0.83±0.08"}, {"measurement": "effect on activation of ERK by fisetin", "setting": "ERK [3]", "result": "blocked"}, {"measurement": "p44 phosphoprotein signal normalized to total protein", "setting": "ERK1 (p44)", "result": "0.75±0.5"}, {"measurement": "effect on activation of CREB by fisetin", "setting": "CREB [4]", "result": "blocked"}, {"measurement": "effect on the ability of fisetin or its derivatives to prevent cell death", "setting": "HT22 cells", "result": "no significant effect"}, {"measurement": "effect on ERK activation by the different flavonoids", "setting": "ERK [5]", "result": "blocked"}, {"measurement": "effect on fisetin-induced facilitation of LTP", "setting": "[6]; PD98059 added 10 minutes prior to fisetin", "result": "blocked"}, {"measurement": "effect on basal synaptic transmission", "setting": "[6]; no tetanus", "result": "no effect"}]}
{"smiles": "O=c1cc(-c2ccc(O)cc2)oc2cc(O)cc(O)c12", "note": "[apigenin, reference compound]", "values": [{"measurement": "object recognition", "setting": "Male C57Bl/6J mice", "result": "did not exhibit significantly better object recognition"}]}
{"smiles": "N[C@@H](CCC(=O)O)C(=O)O", "note": "[glutamate]", "values": [{"measurement": "increase in CREB phosphorylation reported following treatment of slices", "setting": "CREB [7]", "result": "~2.5", "unit": "fold"}, {"measurement": "increase in ERK phosphorylation reported following treatment of slices", "setting": "ERK [1]", "result": "1.5-2 fold"}]}
{"smiles": "COc1ccc(C2CNC(=O)C2)cc1OC1CCCC1", "note": "(stereo not drawn) [rolipram, reference compound]", "values": [{"measurement": "effect on cAMP levels by itself", "setting": "cAMP; 1 μM fisetin 5 minutes, 3 μM rolipram 30 minutes", "result": "modestly increased"}, {"measurement": "potentiation of the effect of forskolin on cAMP levels", "setting": "cAMP; then 5 μM forskolin for 15 minutes", "result": "significantly potentiated"}]}
